In brackets after ≈: the same amount, converted by molar mass. A value given as a limit tells only on which side of the number the result lay.

In the first test the test system is adenosine diphosphate (ADP) induced platelet aggregation. Description: In vitro inhibition of ADP induced platelet aggregation (aggregometer method of Born, modified). The following applies: Oryctolagus cuniculus; rabbit platelet rich plasma, ADP 0.5 mcg./ml. Format: cell-based. As to the method: (§1) The aggregometer method of Born (1), as modified by Mustard et al. (2) was used to assess the in vitro activity of the various compounds as to inhibition of adenosine diphosphate (ADP) and collagen induced platelet aggregation. Platelet rich plasma was separated by centrifugation from citrated (3.8 percent) rabbit blood. ADP in final concentration of 0.5 mcg./ml. or 0.05 ml. of a collagen suspension prepared according to the method described by Evans et al. (3) was used to induce aggregation. The various compounds tested were dissolved in dimethylsulfoxide (DMSO) so that 5 mcl. added to the platelet rich plasma would yield the desired test concentration. Vehicle control trials were done and compared with aggregation induced in platelet rich plasma containing various concentrations of the test compounds. Dose response curves were obtained and Effective Concentration (EC50) values calculated.
(§2) 2. mustard, J. F., Hegardt, B. Rowsell, H. C. and MacMillan, R. L., J. Lab. Clin. Med. 64, 548 (1964).
Usually EC50 stands for the midpoint of the concentration-response curve. The molecule `O=C1CN2Cc3ccccc3N=C2N1` [Compound 1, 1,2,3,5-tetrahydroimidazo [2,1-b]-quinazolin-2-one] registered an EC50 of 6 µg/mL (≈ 32.1 µM).
Still for that read-out and setting: under `O=C1CN2Cc3c(Cl)cccc3N=C2N1` [Compound 2, 6-chloro-1,2,3,5-tetrahydroimidazo[2,1-b]quinazolin-2-one] stands 1 µg/mL (≈ 4.51 µM).
On the same count and under the same terms, under `O=C1CN2Cc3cc(Cl)ccc3N=C2N1` [Compound 3] stands 0.5 µg/mL (≈ 2.26 µM); under `O=C1CN2Cc3ccc(Cl)cc3N=C2N1` [Compound 4], 6 µg/mL (≈ 27.1 µM); under `O=C1CN2Cc3cccc(Cl)c3N=C2N1` [Compound 5], 7 µg/mL (≈ 31.6 µM).
The same measure, in the same setting: under `O=C1CN2Cc3cc(Br)ccc3N=C2N1` [Compound 6, 7-Bromo-1,2,3,5-tetrahydroimidazo[2,1-b]-quinazolin-2-one] stands 0.4 µg/mL (≈ 1.5 µM).
The molecule `O=C1CN2Cc3ccc(F)cc3N=C2N1` [Compound 7] showed an EC50 of 6 µg/mL (≈ 29.2 µM).
In turn, `O=C1CN2Cc3cc([N+](=O)[O-])ccc3N=C2N1` [Compound 8, 7-Nitro-1,2,3,5-tetrahydroimidazo-[2,1-b]quinazolin-2-one] had a 50% effective concentration (EC50) of 2 µg/mL (≈ 8.61 µM).
`Nc1ccc2c(c1)CN1CC(=O)NC1=N2` [Compound 9, 7-Amino-1,2,3,5-tetrahydroimidazo-[2,1-b]quinazolin-2-one] displayed an EC50 of 50 µg/mL (≈ 247 µM).
Same read-out and setting: then `Cc1cccc2c1CN1CC(=O)NC1=N2` [Compound 10, 6-methyl-1,2,3,5-tetrahydroimidazo-[2,1-b]quinazolin-2-one], with 0.5 µg/mL (≈ 2.48 µM); and `Cc1ccc2c(c1)CN1CC(=O)NC1=N2` [Compound 11], with 2 µg/mL (≈ 9.94 µM).
Same read-out and setting: then `Cc1cccc2c1N=C1NC(=O)CN1C2` [Compound 12], with 4 µg/mL (≈ 19.9 µM); and `COc1cccc2c1CN1CC(=O)NC1=N2` [Compound 13, 6-methoxy-1,2,3,5-tetrahydroimidazo-[2,1-b]quinazolin-2-one], with 0.5 µg/mL (≈ 2.3 µM).
On the same count and under the same terms, under `COc1ccc2c(c1)CN1CC(=O)NC1=N2` [Compound 14, 7-methoxy-1,2,3,5-tetrahydroimidazo[2,1-b]quinazolin-2-one] stands 1 µg/mL (≈ 4.6 µM); under `COc1ccc2c(c1OC)CN1CC(=O)NC1=N2` [Compound 16, 6,7-dimethoxy-1,2,3,5-tetrahydroimidazo[2,1-b]quinazolin-2-one], 0.4 µg/mL (≈ 1.62 µM).
Turning to `COc1cc2c(cc1OC)N=C1NC(=O)CN1C2` [Compound 17], a half-maximal effect (EC50) was put at 5 µg/mL (≈ 20.2 µM).

The subject of a further test is ADP induced platelet aggregation. Description: In vivo/in vitro ADP induced platelet aggregation after P.O. dosing of dogs. On the set-up: species or system dog. The note with it: 1 to 2 hours after dosing. As for the experimental part: (§3) *In vivo/In vitro testing:
(§4) Before dosing the animals, blood samples are taken. The blood is centrifuged to obtain the blood platelet-rich plasma. Aggregation of this plasma is induced with ADP or collagen. This is the control.
(§5) The animals are then dosed with the compounds to be tested (orally or parenterally). Depending upon the route of administration, 1 to 2 hours are allowed to elapse after dosing. Blood is drawn and the same procedure employed as for the control in untreated animals.
Take `Cc1cccc2c1CN1CC(=O)NC1=N2` [Compound 10, 6-methyl-1,2,3,5-tetrahydroimidazo-[2,1-b]quinazolin-2-one]: the “In Vivo/In Vitro Dogs P.O. 5 mg./kg. ADP % Inhibition” value was 76%.
Same read-out and setting: then `COc1cccc2c1CN1CC(=O)NC1=N2` [Compound 13, 6-methoxy-1,2,3,5-tetrahydroimidazo-[2,1-b]quinazolin-2-one], with 19%; and `COc1ccc2c(c1)CN1CC(=O)NC1=N2` [Compound 14, 7-methoxy-1,2,3,5-tetrahydroimidazo[2,1-b]quinazolin-2-one], with 17%; and `COc1cc2c(cc1OC)N=C1NC(=O)CN1C2` [Compound 17], with 0%.

For a further test the test system is unchanged. In words: In vivo/in vitro ADP induced platelet aggregation after I.P. dosing of rabbits. On the set-up: species or system rabbit. The note with it: Oryctolagus cuniculus, ip, 1 to 2 hours after dosing, dose for 50% inhibition of aggregation. As to the method: as §3, §4, §5
The dose required to produce 50% inhibition of the aggregation is determined by dose response data obtained in this manner.
By ED50 is commonly meant the dose that gives a 50% effect, or the effect in half of the subjects. High values mean a need for a large dose, low ones an effect at a small dose. In turn, `O=C1CN2Cc3ccccc3N=C2N1` [Compound 1, 1,2,3,5-tetrahydroimidazo [2,1-b]-quinazolin-2-one] returned an ED50 of over 72 mg/kg.
Molecule `O=C1CN2Cc3c(Cl)cccc3N=C2N1` [Compound 2, 6-chloro-1,2,3,5-tetrahydroimidazo[2,1-b]quinazolin-2-one] returned an ED50 of 2 mg/kg.
`O=C1CN2Cc3cc(Cl)ccc3N=C2N1` [Compound 3] showed an ED50 of over 10 mg/kg.
In turn, `O=C1CN2Cc3ccc(Cl)cc3N=C2N1` [Compound 4] came in with a 50% effective dose (ED50) of 18 mg/kg.
`O=C1CN2Cc3cccc(Cl)c3N=C2N1` [Compound 5] registered an ED50 of 6 mg/kg.
Still for that read-out and setting: then `O=C1CN2Cc3cc(Br)ccc3N=C2N1` [Compound 6, 7-Bromo-1,2,3,5-tetrahydroimidazo[2,1-b]-quinazolin-2-one], with 5 mg/kg; and `O=C1CN2Cc3ccc(F)cc3N=C2N1` [Compound 7], with over 10 mg/kg.
Consider `O=C1CN2Cc3cc([N+](=O)[O-])ccc3N=C2N1` [Compound 8, 7-Nitro-1,2,3,5-tetrahydroimidazo-[2,1-b]quinazolin-2-one], for which the ED50 was over 10 mg/kg.
On the same count and under the same terms, under `Cc1cccc2c1CN1CC(=O)NC1=N2` [Compound 10, 6-methyl-1,2,3,5-tetrahydroimidazo-[2,1-b]quinazolin-2-one] stands 0.6 mg/kg; under `Cc1ccc2c(c1)CN1CC(=O)NC1=N2` [Compound 11], over 10 mg/kg; under `Cc1cccc2c1N=C1NC(=O)CN1C2` [Compound 12], over 10 mg/kg.
The same measure, in the same setting: under `COc1cccc2c1CN1CC(=O)NC1=N2` [Compound 13, 6-methoxy-1,2,3,5-tetrahydroimidazo-[2,1-b]quinazolin-2-one] stands 4 mg/kg; under `COc1ccc2c(c1)CN1CC(=O)NC1=N2` [Compound 14, 7-methoxy-1,2,3,5-tetrahydroimidazo[2,1-b]quinazolin-2-one], 4 mg/kg; under `COc1ccc2c(c1OC)CN1CC(=O)NC1=N2` [Compound 16, 6,7-dimethoxy-1,2,3,5-tetrahydroimidazo[2,1-b]quinazolin-2-one], 0.7 mg/kg.
Still for that read-out and setting: under `COc1cc2c(cc1OC)N=C1NC(=O)CN1C2` [Compound 17] stands 4 mg/kg.

Another test concerns collagen induced platelet aggregation. Description: In vitro inhibition of collagen induced platelet aggregation (aggregometer method of Born, modified). The class given is cell-based. The note with it: Oryctolagus cuniculus; rabbit platelet rich plasma, 0.05 ml. collagen suspension. As to the method: as §1, §2
3. Evans, G. Marian M. C., Packham, M. A., Nishizawa, E. E., Mustard, J. F. and Murphy, E. A., J. Exp. Med., 128, 877 (1968).
`O=C1CN2Cc3ccccc3N=C2N1` [Compound 1, 1,2,3,5-tetrahydroimidazo [2,1-b]-quinazolin-2-one]: the EC50 came to 2 µg/mL (≈ 10.7 µM).
Still for that read-out and setting: under `O=C1CN2Cc3c(Cl)cccc3N=C2N1` [Compound 2, 6-chloro-1,2,3,5-tetrahydroimidazo[2,1-b]quinazolin-2-one] stands 0.02 µg/mL (≈ 0.0902 µM); under `O=C1CN2Cc3cc(Cl)ccc3N=C2N1` [Compound 3], 0.2 µg/mL (≈ 0.902 µM); under `O=C1CN2Cc3ccc(Cl)cc3N=C2N1` [Compound 4], 1.5 µg/mL (≈ 6.77 µM).
Regarding `O=C1CN2Cc3cccc(Cl)c3N=C2N1` [Compound 5], a half-maximal effect (EC50) was put at 0.3 µg/mL (≈ 1.35 µM).
The same measure, in the same setting: under `O=C1CN2Cc3cc(Br)ccc3N=C2N1` [Compound 6, 7-Bromo-1,2,3,5-tetrahydroimidazo[2,1-b]-quinazolin-2-one] stands 0.2 µg/mL (≈ 0.752 µM); under `O=C1CN2Cc3ccc(F)cc3N=C2N1` [Compound 7], 2 µg/mL (≈ 9.75 µM); under `O=C1CN2Cc3cc([N+](=O)[O-])ccc3N=C2N1` [Compound 8, 7-Nitro-1,2,3,5-tetrahydroimidazo-[2,1-b]quinazolin-2-one], 0.2 µg/mL (≈ 0.861 µM).
The molecule `Nc1ccc2c(c1)CN1CC(=O)NC1=N2` [Compound 9, 7-Amino-1,2,3,5-tetrahydroimidazo-[2,1-b]quinazolin-2-one] gave an EC50 of 6 µg/mL (≈ 29.7 µM).
Still for that read-out and setting: then `Cc1cccc2c1CN1CC(=O)NC1=N2` [Compound 10, 6-methyl-1,2,3,5-tetrahydroimidazo-[2,1-b]quinazolin-2-one], with 0.1 µg/mL (≈ 0.497 µM); and `Cc1ccc2c(c1)CN1CC(=O)NC1=N2` [Compound 11], with 0.3 µg/mL (≈ 1.49 µM).
On the same count and under the same terms, then `Cc1cccc2c1N=C1NC(=O)CN1C2` [Compound 12], with 3 µg/mL (≈ 14.9 µM).
On the same count and under the same terms, under `COc1cccc2c1CN1CC(=O)NC1=N2` [Compound 13, 6-methoxy-1,2,3,5-tetrahydroimidazo-[2,1-b]quinazolin-2-one] stands 0.2 µg/mL (≈ 0.921 µM).
In turn, `COc1ccc2c(c1)CN1CC(=O)NC1=N2` [Compound 14, 7-methoxy-1,2,3,5-tetrahydroimidazo[2,1-b]quinazolin-2-one] yielded an EC50 of 0.2 µg/mL (≈ 0.921 µM).

A further test deals with blood pressure. In words: Blood pressure of genetically hypertensive rats, P.O. 50 mg/kg. The class given is in vivo. The following applies: Rattus norvegicus, po, 50 mg./kg. orally, tested as hydrochloride salts, + increase, - decrease in b.p. As to the method: The blood pressure of unanesthetized rats and dogs was measured directly by means of a transducer attached to an intra-arterial cannula and in anesthetized dogs by a mercury manometer attached to a carotid cannula.
The compounds of the instant invention were tested as the hydrochloride salts by the above method in genetically hypertensive rats in doses of 50 mg./kg. orally.
For the molecule `O=C1CN2Cc3ccccc3N=C2N1` [Compound 1, 1,2,3,5-tetrahydroimidazo [2,1-b]-quinazolin-2-one], the change in vivo at 50 mg/kg was -36 ± 6%.
Same read-out and setting: under `O=C1CN2Cc3c(Cl)cccc3N=C2N1` [Compound 2, 6-chloro-1,2,3,5-tetrahydroimidazo[2,1-b]quinazolin-2-one] stands -37 ± 8%; under `O=C1CN2Cc3cc(Cl)ccc3N=C2N1` [Compound 3], -4 ± 5%; under `O=C1CN2Cc3ccc(Cl)cc3N=C2N1` [Compound 4], -14%.
Take `O=C1CN2Cc3cccc(Cl)c3N=C2N1` [Compound 5]: the change in vivo at 50 mg/kg was -10 ± 1%.
As to `O=C1CN2Cc3cc(Br)ccc3N=C2N1` [Compound 6, 7-Bromo-1,2,3,5-tetrahydroimidazo[2,1-b]-quinazolin-2-one], the change in vivo at 50 mg/kg is -8 ± 3%.
On the same count and under the same terms, then `O=C1CN2Cc3ccc(F)cc3N=C2N1` [Compound 7], with -27 ± 3%.
Same read-out and setting: under `O=C1CN2Cc3cc([N+](=O)[O-])ccc3N=C2N1` [Compound 8, 7-Nitro-1,2,3,5-tetrahydroimidazo-[2,1-b]quinazolin-2-one] stands 5 ± 2%; under `Nc1ccc2c(c1)CN1CC(=O)NC1=N2` [Compound 9, 7-Amino-1,2,3,5-tetrahydroimidazo-[2,1-b]quinazolin-2-one], -10 ± 14%.
Turning to `Cc1cccc2c1CN1CC(=O)NC1=N2` [Compound 10, 6-methyl-1,2,3,5-tetrahydroimidazo-[2,1-b]quinazolin-2-one], the change in vivo at 50 mg/kg is -37 ± 8%.
For the molecule `Cc1cccc2c1N=C1NC(=O)CN1C2` [Compound 12], the change in vivo at 50 mg/kg is -22 ± 10%.
`COc1cccc2c1CN1CC(=O)NC1=N2` [Compound 13, 6-methoxy-1,2,3,5-tetrahydroimidazo-[2,1-b]quinazolin-2-one]: the change in vivo at 50 mg/kg is -20 ± 14%.
On the same count and under the same terms, under `COc1ccc2c(c1)CN1CC(=O)NC1=N2` [Compound 14, 7-methoxy-1,2,3,5-tetrahydroimidazo[2,1-b]quinazolin-2-one] stands -19 ± 4%; under `COc1cc2c(cc1OC)N=C1NC(=O)CN1C2` [Compound 17], 26%.

The record behind these values is patent publication US3932407A, “Optionally substituted 1,2,3,5-tetrahydroimidezo(2,1-b)-quinazolin-2-ones and 6(H)-1,2,3,4-tetrahydropyimido(2,1-b)quinazolin-2-ones” (Bristol-Myers Company, priority 1974, dated 1976).
